Measurements from patent US11896602B2, “Method for preventing pregnancy” (ESTETRA SRL, priority 2016, dated 2024).

How the values were obtained:
[1] = Terminal half-life; conditions: in vivo
[2] = Triglycerides levels on daily estrogen use; type: in vivo, human; conditions: even at higher dosages
Description: Besides, the daily use of currently marketed estrogens (ethinylestradiol (EE), E2, E2V, conjugated equine estrogens) is associated with a dose-proportional increase in triglycerides levels. In the human body, high levels of triglycerides in the bloodstream have been linked to atherosclerosis and, by extension, the risk of heart disease and stroke.

[3] = test system: healthy female subjects; test: Example 1 clinical study, one 28-day cycle: dysmenorrhea as treatment-emergent adverse event; type: in vivo, human
Protocol: During that study, healthy female subjects were treated for one 28-day cycle with either 10 or 20 mg E4 alone (n=10 and 11, respectively) or with a combination of E4 with either Progesterone (P) or Desogestrel (DSG) (n=15 or 16, respectively).
At baseline, occasional dysmenorrhea was reported by 11 subjects (21.2%), and frequent dysmenorrhea was reported by 19 subjects (36.5%). Overall, dysmenorrhea was reported by 25% to 53.3% of the subjects included in this trial.
As shown in Table 3 of Treatment-emergent adverse events (TE-AE) below, reporting of dysmenorrhea during the treatment phase was low in comparison to the incidence recorded at baseline.

[4] = 10 mg E4, n = 10, one 28-day cycle
[5] = 20 mg E4 alone (n = 11), with DSG (n = 15) or with P4 (n = 16), one 28-day cycle

terminal half-life [1]: 31.7 h
triglycerides levels [2]: minimally increases triglycerides levels
Structure (SMILES): C[C@]12CC[C@@H]3c4ccc(O)cc4CC[C@H]3[C@@H]1[C@@H](O)[C@@H](O)[C@@H]2O [E4, estetrol]
Dysmenorrhea TE-AE, % of subjects [3, 4]: 10.0%
Dysmenorrhea TE-AE, number of subjects [3, 4]: 1
Dysmenorrhea TE-AE, % of subjects [3, 5]: 9.1%
Dysmenorrhea TE-AE, number of subjects [3, 5]: 1
